Data taken from patent EP3821949B1, “PHARMACEUTICAL COMPOSITION FOR USE IN THE TREATMENT OF A CANCER ASSOCIATED WITH THE ACTIVATION OF GALECTIN-1” (Trineo Biotechnology Co. Ltd, priority 2019, dated 2021).
Several values for one entry are separate records, joined by “and”; a condition that tells them apart may be missing. Equal entries are not always repeated.

Tests used:
Format in all cases: cell-based
[1] = tested on: myeloma ARH-77 cells; assay: MTT assay on myeloma ARH-77 cells, chemotherapeutic drug alone or combined with TN-GL-01 or a comparative drug; conditions: for IC50: Homo sapiens, ARH-77 cells, chemotherapeutic agent alone (control)
Method: (§1) Ovarian cancer cell ES-2 and myeloma cell line ARH-77 were used in the present disclosure. Cells was cultured and maintained in Dulbecco's modified Eagle media (DMEM) supplemented with 10 % fetal bovine serum (FBS), 100 IU/ml penicillin, […] streptomycin, 2 mM glutamine, nonessential amino acids and sodium pyruvate in 5% CO2 at 37 °C. Cells were grown and maintained in Petri dishes (each was 10 cm in diameter) until they reached 80% confluence, and then were subject to cell passages. Briefly, cells were first washed with phosphate buffer solution (PBS, 3 ml) once, then treated with 0.05% Trypsin/0.025% EDTA solution (1 mL) for 5 min so that the attached cells become suspended. The suspended cells were harvested and 2 mL fresh culture media were added therein to neutralize any remaining activity of trypsin. Cell density was adjusted by adding appropriate amounts of culture medium to the cell suspension, which was then used to seed the culture plates. The plates were then returned to the incubator, and cultured in accordance with the steps described above.
Cells were seeded in 96-well plates with a density of 3,000 cells/well and cultured in accordance with the procedures described above. On the day when cell activity analysis was to be conducted, cells were first treated with various concentrations of the triterpenoids of the present disclosure, imatinib or gefitinib for at least 48 hrs, before subjecting them to MTT assay.
50 µL of the MTT stock solution (5 mg MTT dissolved in 1 ml of sterile PBS) was added to each well, and 50 µL of the MTT stock solution was added to 500 µL of medium alone and used as a negative control. Each sample was incubated at 37°C for 4 hours. Aliquots (450 µl) from each sample were taken to a new well of 48-well culture plate, adding 100µL DMSO, mixing thoroughly using the pipette and reacted at 37°C for 20 min and absorbance was measured at 570 nm.
In this example, the effect of TN-GL-01 composition of example 1.1 on the cell killing effect of a chemotherapeutic drug (i.e., etoposide, doxorubicin, cisplatin, and paclitaxel) on myeloma ARH-77 cells was investigated, in which cyclophosphamide served as a comparative drug. Results are summarized in Tables 1 to 3, and Figures 3 and 4.
To determine the effects of combined use of TN-GL-01 and any other three drugs including paclitaxel, doxorubicin, and cisplatin, the statistical differences between expected value and oberved value of the survival rate were calculated. If no significantance existed between the expected and observed values, the effect is termed"additivity (p > 0.05)". […] The expected value was determined by multifying the survival rate of each drug in specific dose. The obtained value and value of each survival rate were measured by MMT assay (Fig. 3 and Fig. 4).

[2] = tested on: ES-2 cells; assay: MTT assay (cell activity analysis) on ovarian cancer ES-2 cells; conditions: treatment at least 48 hrs
Method: as §1, with “The suspended cells were harvested and 2 mL fresh culture media were added therein to neutralize any remaining activity of trypsin. Cell density was adjusted by adding appropriate amounts of culture medium to the cell suspension, which was then used to seed the culture plates. The plates were then returned to the incubator, and cultured in accordance with the steps described above.” left out
50 µL of the MTT stock solution (5 mg MTT dissolved in 1 ml of sterile PBS) was added to each well, and 50 µL of the MTT stock solution was added to 500 µL of medium alone and used as a negative control. […] Aliquots (450 µl) from each sample were taken to a new well of 48-well culture plate, adding 100µL DMSO, mixing thoroughly using the pipette and reacted at 37°C for 20 min and absorbance was measured at 570 nm.
The effects of the TN-GL-01 composition of example 1.1 on ovarian cancer cells (i.e., ES-2 cells) were evaluated by MTT assay in accordance with procedures described in the "Material and Methods" section.

[3] = tested on: galectin-1; assay: Western blot analysis of galectin-1 expression in ES-2 cells; conditions: Figure 2
Method: Samples were respectively subjected to SDS-PAGE, transferred to PVDF membranes. These blots were blocked with 5% nonfat milk powder in TBS-0.1% Tween-20 for 30 minutes, followed by incubation with primary antibodies at 4°C overnight and then horseradish peroxidaseconjugated secondary antibodies (Amersham Biosciences, Piscataway). Imaging of bands was performed using Pierce ECL Western Blotting Substrate (Thermo Fisher Scientific) and ImageQuant LAS-4000 (GE Healthcare).
In this example, the effects of TN-GL-01 composition on the expression of galectin-1 in ERK (extracellular-signal-regulated kinase) pathway was invesigated via western blot analysis. […] Thus, it was concluded that the present TN-GL-01 composition exerted its function through suppression of galectin -1.

[4] = Table 2, second agent alone: TN-GL-01 20 µg/mL, Doxorubicin 100 nM, Cisplatin 3 µM
[5] = Table 3, second agent alone: TN-GL-01 20 µg/mL, Paclitaxel 40 µM, Cisplatin 3 µM

For `N.N.[Cl][Pt][Cl]` [Cisplatin], the “Cell Survival Rate, single drug (factor of expected value)” value (from here on “Cell Survival Rate, single drug”) [1, 4] was 0.65 and the “Cell Survival Rate, single drug” value [1, 5] was 0.69.

`COc1cccc2c1C(=O)c1c(O)c3c(c(O)c1C2=O)C[C@@](O)(C(=O)CO)C[C@@H]3O[C@H]1C[C@H](N)[C@H](O)[C@H](C)O1` [Doxorubicin] was tested, and the IC50 [1] was 99 nM and the “Cell Survival Rate, single drug” value [1, 4] was 0.58.

For `COc1cc([C@@H]2c3cc4c(cc3[C@@H](O[C@@H]3O[C@@H]5CO[C@@H](C)O[C@H]5[C@H](O)[C@H]3O)[C@H]3COC(=O)[C@H]23)OCO4)cc(OC)c1O` [Etoposide], the IC50 [1] was 415 nM.

For `C/C(=C/CC[C@@H](C)[C@H]1CC[C@@]2(C)C3=CC[C@H]4C(C)(C)C(=O)CC[C@]4(C)C3=CC[C@]12C)C(=O)O` [GAS, ganoderic acid S], the “50% inhibition of ES-2 cells (IC50)” value [2] was 58.3 µg/mL and the “expression of galectin-1” value [3] was “effective in suppressing”.

For `CC(=O)O[C@@H](C/C=C(\C)C(=O)O)[C@@H](C)[C@H]1C[C@H](OC(C)=O)[C@@]2(C)C3=CC[C@H]4C(C)(C)[C@H](OC(C)=O)CC[C@]4(C)C3=CC[C@]12C` [GAT, ganoderic acid T], the “50% inhibition of ES-2 cells (IC50)” value [2] was 24.5 µg/mL and the “expression of galectin-1” value [3] was “effective in suppressing”.

`CC(=O)O[C@H]1C(=O)[C@@]2(C)[C@H]([C@H](OC(=O)c3ccccc3)[C@]3(O)C[C@H](OC(=O)[C@H](O)[C@@H](NC(=O)c4ccccc4)c4ccccc4)C(C)=C1C3(C)C)[C@]1(OC(C)=O)CO[C@@H]1C[C@@H]2O` [Paclitaxel] was tested, and the “Cell Survival Rate, single drug” value ([1]; Table 2, Paclitaxel 62.5 nM alone) was 0.68 × 0.82 = 0.56±0.03 and 0.68, the “Cell Survival Rate, single drug” value ([1]; Table 2, Paclitaxel 125 nM alone) was 0.50 × 0.82 = 0.41±0.03 and 0.50 and the “Cell Survival Rate, single drug” value [1, 5] was 0.65.
